Broadly, the inhibition is the drop in the measured response relative to a control, in per cent.

The target in experiment [1] is EZH1 (Homo sapiens, UniProt Q92800). The experiment can be described thus: AlphaLISA enzyme activity inhibition, EZH1. The format is biochemical. An outline of the steps:
(§1)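 Enzyme inhibition rate was calculated relative to DMSO from AlphaLISA signal, with acceptor beads added after a 2 h methylation reaction and donor beads 1 h later. Each enzyme, EZH1 or EZH2, was pre-mixed with compound (final 5 nM or 10 nM) in Tris buffer pH 8.0 before histone H3 peptide and SAM initiated the reaction.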
On the technique in general: Alpha assays give light when donor and acceptor beads are brought close together.

The subject of experiment [2] is Lovo cells. The experiment can be described thus: Cancer cell proliferation inhibition (Cell Counting Kit-8), colorectal cancer cell line. To be noted: 1000 nM, cultured seven to 11 days; for inhibition at 1 µM: Homo sapiens, LoVo, 264 h, read-out: % inhibition rate LoVo. The format is cell-based. The method in brief: (§2)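 After plating 100 to 1,000 cells per well in medium with 10% fetal bovine serum, each line receives 1000 nM compound and is cultured for seven to 11 days. Growth inhibition is derived from CCK-8 signal compared with control cultures.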

For experiment [3], the system named is G401 cells. The experiment in a line: Cancer cell proliferation inhibition (Cell Counting Kit-8), rhabdoid tumor cell line. Type of experiment: cell-based. The following applies: 1000 nM, cultured seven to 11 days; for % inhibition rate G401: 1 µM; for inhibition at 1 µM: Homo sapiens, G-401, 264 h, read-out: % inhibition rate G401. An outline of the steps:
(§3)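 Single 1000 nM dose of test substance, applied to cells seeded at 100–1,000 per well in 10% FBS medium, then culture for seven to 11 days. CCK-8 read-out; inhibition rate expressed as percent relative to untreated control.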

The test system of experiment [4] is MIA-PaCa-2 cells. The experiment in a line: Cancer cell proliferation inhibition (Cell Counting Kit-8), pancreatic cancer cell line. The format is cell-based. To be noted: 1000 nM, cultured seven to 11 days; for inhibition at 1 µM: Homo sapiens, MIA PaCa-2, 264 h, read-out: % inhibition rate MIA-Paca2. The method in brief:
as §2
(Tetrazolium assays rely on reduction of a dye to a coloured formazan, in cell work by metabolically active cells.)

The subject of experiment [5] is MKN-45 cells. The experiment can be described thus: Cancer cell proliferation inhibition (Cell Counting Kit-8), gastric cancer cell line. Type of experiment: cell-based. To be noted: 1000 nM, cultured seven to 11 days; for inhibition at 1 µM: Homo sapiens, MKN-45, 264 h, read-out: % inhibition rate MKN -45. The method in brief:
as §3

Experiment [6] relates to SW-13 cells. The experiment in a line: Cancer cell proliferation inhibition (Cell Counting Kit-8), adrenal cancer cell line. The format is cell-based. To be noted: 1000 nM, cultured seven to 11 days; for inhibition at 1 µM: Homo sapiens, SW13, 264 h, read-out: % inhibition rate SW-13. The method in brief:
as §2

For experiment [7], the system named is NCI-H1299 cells. The experiment in a line: Cancer cell proliferation inhibition (Cell Counting Kit-8), lung cancer cell line. The following applies: 1000 nM, cultured seven to 11 days; for inhibition at 1 µM: Homo sapiens, NCI-H1299, 264 h, read-out: % inhibition rate NCI-H129 9. Type of experiment: cell-based. The method in brief: as §2
For experiment [8], the target named is EZH2 (Homo sapiens, UniProt Q15910). The experiment can be described thus: AlphaLISA enzyme activity inhibition, EZH2. Type of experiment: biochemical. An outline of the steps:
as §1

Sequence of EZH1 (Q92800 whole entry, species assumed): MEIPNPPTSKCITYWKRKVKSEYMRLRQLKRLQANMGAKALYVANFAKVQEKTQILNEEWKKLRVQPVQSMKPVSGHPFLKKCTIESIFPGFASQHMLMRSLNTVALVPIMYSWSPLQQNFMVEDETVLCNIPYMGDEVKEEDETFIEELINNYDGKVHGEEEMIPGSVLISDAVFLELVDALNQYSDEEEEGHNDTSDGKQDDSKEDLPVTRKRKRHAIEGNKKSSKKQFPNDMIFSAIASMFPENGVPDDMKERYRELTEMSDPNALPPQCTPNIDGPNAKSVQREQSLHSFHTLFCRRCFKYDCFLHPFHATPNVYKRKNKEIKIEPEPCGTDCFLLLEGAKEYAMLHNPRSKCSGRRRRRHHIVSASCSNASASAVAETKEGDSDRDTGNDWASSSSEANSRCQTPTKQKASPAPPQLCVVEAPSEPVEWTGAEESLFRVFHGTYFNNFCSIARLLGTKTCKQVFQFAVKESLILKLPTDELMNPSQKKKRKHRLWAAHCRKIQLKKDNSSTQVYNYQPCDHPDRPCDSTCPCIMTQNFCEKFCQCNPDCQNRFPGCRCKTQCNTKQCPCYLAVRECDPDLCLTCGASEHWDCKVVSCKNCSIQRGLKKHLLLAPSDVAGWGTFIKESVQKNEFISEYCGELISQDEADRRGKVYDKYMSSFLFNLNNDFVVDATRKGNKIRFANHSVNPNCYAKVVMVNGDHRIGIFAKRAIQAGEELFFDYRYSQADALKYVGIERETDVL
Sequence of EZH1 (O75530 whole entry partner, species assumed): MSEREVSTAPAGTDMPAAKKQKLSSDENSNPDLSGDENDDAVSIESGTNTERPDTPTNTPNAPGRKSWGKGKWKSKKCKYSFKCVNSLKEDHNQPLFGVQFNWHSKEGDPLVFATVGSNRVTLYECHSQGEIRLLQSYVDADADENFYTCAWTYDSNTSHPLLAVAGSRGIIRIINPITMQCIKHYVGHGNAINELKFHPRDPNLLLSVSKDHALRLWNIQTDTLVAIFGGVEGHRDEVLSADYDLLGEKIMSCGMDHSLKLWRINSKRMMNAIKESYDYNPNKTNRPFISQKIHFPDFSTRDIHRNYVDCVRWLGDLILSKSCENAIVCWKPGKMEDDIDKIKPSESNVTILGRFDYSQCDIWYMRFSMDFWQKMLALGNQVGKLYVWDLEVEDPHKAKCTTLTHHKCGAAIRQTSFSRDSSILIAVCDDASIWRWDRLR
Sequence of EZH1 (Q15022 whole entry partner, species assumed): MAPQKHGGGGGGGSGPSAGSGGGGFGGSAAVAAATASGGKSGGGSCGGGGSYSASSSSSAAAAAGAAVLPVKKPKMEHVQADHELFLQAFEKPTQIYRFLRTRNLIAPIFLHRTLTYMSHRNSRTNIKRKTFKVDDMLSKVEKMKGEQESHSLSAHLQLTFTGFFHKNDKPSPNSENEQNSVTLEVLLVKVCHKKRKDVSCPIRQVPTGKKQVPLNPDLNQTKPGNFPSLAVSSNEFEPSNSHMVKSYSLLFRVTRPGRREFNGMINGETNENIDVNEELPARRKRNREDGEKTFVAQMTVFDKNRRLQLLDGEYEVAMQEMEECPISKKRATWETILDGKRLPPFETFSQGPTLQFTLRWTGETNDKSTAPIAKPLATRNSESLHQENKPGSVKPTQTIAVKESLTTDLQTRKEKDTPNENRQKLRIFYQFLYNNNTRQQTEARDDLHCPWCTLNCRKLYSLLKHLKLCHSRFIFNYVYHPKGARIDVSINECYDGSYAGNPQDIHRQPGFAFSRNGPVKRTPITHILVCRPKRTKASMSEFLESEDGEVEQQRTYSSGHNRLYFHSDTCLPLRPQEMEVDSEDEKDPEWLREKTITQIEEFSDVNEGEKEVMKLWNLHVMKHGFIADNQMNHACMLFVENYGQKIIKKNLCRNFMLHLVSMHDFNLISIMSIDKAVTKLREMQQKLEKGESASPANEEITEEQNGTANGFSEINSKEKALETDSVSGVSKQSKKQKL
Sequence of EZH2 (Q15910 whole entry, species assumed): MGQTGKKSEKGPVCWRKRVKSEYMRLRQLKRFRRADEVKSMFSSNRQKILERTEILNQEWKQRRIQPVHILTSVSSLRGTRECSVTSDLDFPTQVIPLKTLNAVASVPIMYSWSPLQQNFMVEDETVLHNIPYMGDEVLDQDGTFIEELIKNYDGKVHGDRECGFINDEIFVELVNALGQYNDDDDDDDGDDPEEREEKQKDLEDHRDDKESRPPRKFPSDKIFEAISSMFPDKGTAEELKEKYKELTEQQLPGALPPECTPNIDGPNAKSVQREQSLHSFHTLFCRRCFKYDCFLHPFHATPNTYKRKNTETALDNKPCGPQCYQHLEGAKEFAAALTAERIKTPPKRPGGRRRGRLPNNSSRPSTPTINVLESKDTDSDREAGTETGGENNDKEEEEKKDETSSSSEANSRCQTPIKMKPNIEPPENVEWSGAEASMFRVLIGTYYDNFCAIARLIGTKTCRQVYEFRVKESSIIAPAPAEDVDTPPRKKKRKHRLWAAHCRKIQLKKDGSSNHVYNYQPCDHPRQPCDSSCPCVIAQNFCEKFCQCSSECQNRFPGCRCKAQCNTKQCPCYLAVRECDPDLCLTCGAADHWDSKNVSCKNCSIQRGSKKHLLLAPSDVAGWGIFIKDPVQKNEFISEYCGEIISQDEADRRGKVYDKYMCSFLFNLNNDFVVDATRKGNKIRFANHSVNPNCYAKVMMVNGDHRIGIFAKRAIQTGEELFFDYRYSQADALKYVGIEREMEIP
Sequence of EZH2 (O75530 whole entry partner, species assumed): as the sequence (O75530 whole entry partner, species assumed) above
Sequence of EZH2 (Q15022 whole entry partner, species assumed): as the sequence (Q15022 whole entry partner, species assumed) above

Turning to `CCN(C)c1ccc(-c2cc(C(=O)NCc3c(SC)cc(C)[nH]c3=O)c(C)c3c2OC(C)(C2CCN(CC(F)(F)F)CC2)O3)cn1` (single isomer, unassigned) [Compound 86, 7-(6-(ethyl(methyl)amino)pyridin-3-yl)-2,4-dimethyl-N-((6-methyl-4-(methylthio)-2-oxo-1,2-dihydropyridin-3-yl)methyl)-2-(1-(2,2,2-trifluoroethyl)piperidin-4-yl)benzo[d][1,3]dioxole-5-carboxamide], the “Enzyme inhibition % EZH1” value in experiment [1] (5nM test substance, 0.005 µM) was determined as 42.0%; in experiment [1] (10nM test substance, 0.01 µM) it was 65.9%. Further, in experiment [2], the “% inhibition rate LoVo” value is recorded as “+++ (+++: ≥70%)”. For the same compound, in experiment [3], the “% inhibition rate G401” value is “+++ (+++: ≥70%)”. In experiment [4], the “% inhibition rate MIA-Paca2” value is “+ (+: ≤30%)”. Moreover, in experiment [5] (1 µM), the “% inhibition rate MKN -45” value was “++ (++: more than 30% and less than 70%)”. In addition, the “% inhibition rate SW-13” value in experiment [6] (1 µM) is recorded as “+ (+: ≤30%)”. For the same compound, in experiment [7] (1 µM), the “% inhibition rate NCI-H129 9” value is “+ (+: ≤30%)”. The “Enzyme inhibition % EZH2” value in experiment [8] (5nM test substance, 0.005 µM) was 98.3%; in experiment [8] (10nM test substance, 0.01 µM) it was 99.2%.
`COCCN(C)[C@H]1CC[C@H](C2(C)Oc3c(-c4ccc(N5C[C@@H](C)O[C@@H](C)C5)nc4)cc(C(=O)NCc4c(SC)cc(C)[nH]c4=O)c(C)c3O2)CC1` (stereo partly drawn) [Compound 24, 7-(6-((2S,6R)-2,6-dimethylmorpholino)pyridin-3-yl)-2-(trans-4-((2-methoxyethyl)(methyl)amino)cyclohexyl)-2,4-dimethyl-N-((6-methyl-4-(methylthio)-2-oxo-1,2-dihydropyridin-3-yl)methyl)benzo[d][1,3]dioxole-5-carboxamide]: the inhibition at 0.005 µM in experiment [1] (5nM test substance) stood at 35.1%; in experiment [8] (5nM test substance), 98.6%. The inhibition at 1 µM in experiment [2] was no less than 70%; in experiment [3] it was 30 to 70%; in experiment [4], no more than 30%; in experiment [5], no more than 30%; in experiment [6], 30 to 70%; in experiment [7], no more than 30%.
Take `CSc1cc(C)[nH]c(=O)c1CNC(=O)c1cc(-c2cnc(N3CCOCC3)nc2)c2c(c1C)OC(C)(C1CCN(CC(F)F)CC1)O2` (single isomer, unassigned) [Compound 71, 2-(1-(2,2-difluoroethyl)piperidin-4-yl)-2,4-dimethyl-N-((6-methyl-4-(methylthio)-2-oxo-1,2-dihydropyridin-3-yl)methyl)-7-(2-morpholinopyrimidin-5-yl)benzo[d][1,3]dioxole-5-carboxamide]: the inhibition at 0.005 µM in experiment [1] (5nM test substance) stood at 68.5%; in experiment [8] (5nM test substance), 96.1%. Moreover, the inhibition at 0.01 µM in experiment [1] (10nM test substance) was 82.8%; in experiment [8] (10nM test substance), 99.5%. Besides, the inhibition at 1 µM was no less than 70% in experiment [2]; no more than 30% in experiment [4]; 30 to 70% in experiment [5]; 30 to 70% in experiment [6]; 30 to 70% in experiment [7]. For the same compound, the “% inhibition rate G401” value in experiment [3] is “+++ (+++: ≥70%)”.
As for `CSc1cc(C)[nH]c(=O)c1CNC(=O)c1cc(-c2cnc(N3CCOCC3)nc2)c2c(c1C)OC(C)(C1CCN(CC(F)(F)F)CC1)O2` (stereo not shown) [Compound 68, 2,4-dimethyl-N-((6-methyl-4-(methylthio)-2-oxo-1,2-dihydropyridin-3-yl)methyl)-7-(2-morpholinopyrimidin-5-yl)-2-(1-(2,2,2-trifluoro)piperidin-4-yl)benzo[d][1,3]dioxole-5-carboxamide], the values for the inhibition at 0.005 µM in experiment [1] (5nM test substance) and in experiment [8] (5nM test substance) were 56.4% and 87.3%, respectively. The figures for the inhibition at 0.01 µM in experiment [1] (10nM test substance) and in experiment [8] (10nM test substance) were 78.9% and 99.7%, respectively. For the same compound, the inhibition at 1 µM in experiment [2] is no less than 70%; in experiment [3], no less than 70%; in experiment [4] it was no more than 30%; in experiment [5], 30 to 70%; in experiment [6] it was 30 to 70%; in experiment [7] it was no more than 30%.
As for `CSc1cc(C)[nH]c(=O)c1CNC(=O)c1cc(-c2ccc(N3C[C@@H](C)O[C@@H](C)C3)nc2)c2c(c1C)OC(C)(C1CCN(CC(F)F)CC1)O2` (stereo partly drawn) [Compound 46, 2-(1-(2,2-difluoroethyl)piperidin-4-yl)-7-(6-((2S,6R)-2,6-dimethylmorpholino)pyridin-3-yl)-2,4-dimethyl-N-((6-methyl-4-(methylthio)-2-oxo-1,2-dihydropyridin-3-yl)methyl)benzo[d][1,3]dioxole-5-carboxamide], the inhibition at 0.005 µM in experiment [1] (5nM test substance) was 44.7%; in experiment [8] (5nM test substance) it was 59.2%. For the same compound, the inhibition at 0.01 µM was found to be 63% in experiment [1] (10nM test substance) and 84% in experiment [8] (10nM test substance). Further, the inhibition at 1 µM is no less than 70% in experiment [2]; no less than 70% in experiment [3]; no more than 30% in experiment [4]; 30 to 70% in experiment [5]; 30 to 70% in experiment [6]; 30 to 70% in experiment [7].
Take `CSc1cc(C)[nH]c(=O)c1CNC(=O)c1cc(-c2ccc(N3CCSCC3)nc2)c2c(c1C)OC(C)([C@H]1CC[C@H](N(C)C)CC1)O2` (relative stereo) [Compound 17, 2-(trans-4-(dimethylamino)cyclohexyl)-2,4-dimethyl-N-((6-methyl-4-(methylthio)-2-oxo-1,2-dihydropyridin-3-yl)methyl)-7-(6-thiomorpholinopyridin-3-yl)benzo[d][1,3]dioxole-5-carboxamide]: the values for the inhibition at 0.005 µM in experiment [1] (5nM test substance) and in experiment [8] (5nM test substance) were 93.8% and 99.3%, respectively. Besides, the inhibition at 1 µM in experiment [2] is no less than 70%; in experiment [3], 30 to 70%; in experiment [4], no more than 30%; in experiment [5], no more than 30%; in experiment [6] it was 30 to 70%; in experiment [7], 30 to 70%.
`CSc1cc(C)[nH]c(=O)c1CNC(=O)c1cc(-c2ccc3c(c2)OCO3)c2c(c1C)OC(C)(C1CCN(CC(F)F)CC1)O2` (stereo not shown) [Compound 95, 2-(1-(2,2-difluoroethyl)piperidin-4-yl)-2,7-dimethyl-N-((6-methyl-4-(methylthio)-2-oxo-1,2-dihydropyridin-3-yl)methyl)-[4,5'-bibenzo[d][1,3]dioxole]-6-carboxamide]: the inhibition at 0.005 µM in experiment [1] (5nM test substance) stood at 38.1%; in experiment [8] (5nM test substance) it was 83.2%. The inhibition at 0.01 µM was 46% in experiment [1] (10nM test substance) and 91.1% in experiment [8] (10nM test substance). For the same compound, the inhibition at 1 µM was no less than 70% in experiment [2]; no less than 70% in experiment [3]; no more than 30% in experiment [4]; 30 to 70% in experiment [5]; no more than 30% in experiment [6]; no more than 30% in experiment [7].
Consider `CSc1cc(C)[nH]c(=O)c1CNC(=O)c1cc(-c2cnc(N3CCC(F)(F)CC3)nc2)c2c(c1C)OC(C)([C@H]1CC[C@H](N(C)C)CC1)O2` (relative stereo) [Compound 8, 7-(2-(4,4-difluoropiperidin-1-yl)pyrimidin-5-yl)-2-(trans-4-(dimethylamino)cyclohexyl)-2,4-dimethyl-N-((6-methyl-4-(methylthio)-2-oxo-1,2-dihydropyridin-3-yl)methyl)benzo[d][1,3]dioxole-5-carboxamide], for which the inhibition at 0.005 µM in experiment [1] (5nM test substance) turned out to be 85.6%; in experiment [8] (5nM test substance), 96.1%. Moreover, the inhibition at 1 µM is 30 to 70% in experiment [2]; 30 to 70% in experiment [3]; no more than 30% in experiment [4]; 30 to 70% in experiment [5]; 30 to 70% in experiment [6]; no more than 30% in experiment [7].
Take `CSc1cc(C)[nH]c(=O)c1CNC(=O)c1cc(-c2cnc(N3CCCCC3)nc2)c2c(c1C)OC(C)([C@H]1CC[C@H](N(C)CC(F)(F)F)CC1)O2` (relative stereo) [Compound 21, 2,4-dimethyl-2-(trans-4-(methyl(2,2,2-trifluoroethyl)amino)cyclohexyl)-N-((6-methyl-4-(methylthio)-2-oxo-1,2-dihydropyridin-3-yl)methyl)-7-(2-(piperidin-1-yl)pyrimidin-5-yl)benzo[d][1,3]dioxole-5-carboxamide]: the results for the inhibition at 0.005 µM in experiment [1] (5nM test substance) and in experiment [8] (5nM test substance) were 20.6% and 11.3%, respectively. Further, the inhibition at 1 µM was no less than 70% in experiment [2]; no more than 30% in experiment [3]; no more than 30% in experiment [4]; no more than 30% in experiment [5]; no more than 30% in experiment [6]; no more than 30% in experiment [7].

These data come from patent EP4740948A1 (Dong Wha Pharm. Co., Ltd., priority 2023, dated 2025).
